Source: US20220184008A1, “MODULATORS OF INTRACELLULAR CHLORIDE CONCENTRATION” (FONDAZIONE ISTITUTO ITALIANO DI TECNOLOGIA, priority 2019, published 2022)

What was measured:
NKCC1 [1] = biological target: T1, NKCC1 (Homo sapiens, UniProt P55011); assay: Chloride kinetic assay (Cl-sensitive YFP) in NKCC1-transfected HEK293 cells; format: cell-based; details: 10 μM; NKCC1-transfected HEK293; Table 1; read-out: NKCC1 Inhibition % 10 μM HEK Chloride YFP assay
T1 construct: expressed in transfected cells; host or cells: HEK293
T1 sequence (P55011 1-1212): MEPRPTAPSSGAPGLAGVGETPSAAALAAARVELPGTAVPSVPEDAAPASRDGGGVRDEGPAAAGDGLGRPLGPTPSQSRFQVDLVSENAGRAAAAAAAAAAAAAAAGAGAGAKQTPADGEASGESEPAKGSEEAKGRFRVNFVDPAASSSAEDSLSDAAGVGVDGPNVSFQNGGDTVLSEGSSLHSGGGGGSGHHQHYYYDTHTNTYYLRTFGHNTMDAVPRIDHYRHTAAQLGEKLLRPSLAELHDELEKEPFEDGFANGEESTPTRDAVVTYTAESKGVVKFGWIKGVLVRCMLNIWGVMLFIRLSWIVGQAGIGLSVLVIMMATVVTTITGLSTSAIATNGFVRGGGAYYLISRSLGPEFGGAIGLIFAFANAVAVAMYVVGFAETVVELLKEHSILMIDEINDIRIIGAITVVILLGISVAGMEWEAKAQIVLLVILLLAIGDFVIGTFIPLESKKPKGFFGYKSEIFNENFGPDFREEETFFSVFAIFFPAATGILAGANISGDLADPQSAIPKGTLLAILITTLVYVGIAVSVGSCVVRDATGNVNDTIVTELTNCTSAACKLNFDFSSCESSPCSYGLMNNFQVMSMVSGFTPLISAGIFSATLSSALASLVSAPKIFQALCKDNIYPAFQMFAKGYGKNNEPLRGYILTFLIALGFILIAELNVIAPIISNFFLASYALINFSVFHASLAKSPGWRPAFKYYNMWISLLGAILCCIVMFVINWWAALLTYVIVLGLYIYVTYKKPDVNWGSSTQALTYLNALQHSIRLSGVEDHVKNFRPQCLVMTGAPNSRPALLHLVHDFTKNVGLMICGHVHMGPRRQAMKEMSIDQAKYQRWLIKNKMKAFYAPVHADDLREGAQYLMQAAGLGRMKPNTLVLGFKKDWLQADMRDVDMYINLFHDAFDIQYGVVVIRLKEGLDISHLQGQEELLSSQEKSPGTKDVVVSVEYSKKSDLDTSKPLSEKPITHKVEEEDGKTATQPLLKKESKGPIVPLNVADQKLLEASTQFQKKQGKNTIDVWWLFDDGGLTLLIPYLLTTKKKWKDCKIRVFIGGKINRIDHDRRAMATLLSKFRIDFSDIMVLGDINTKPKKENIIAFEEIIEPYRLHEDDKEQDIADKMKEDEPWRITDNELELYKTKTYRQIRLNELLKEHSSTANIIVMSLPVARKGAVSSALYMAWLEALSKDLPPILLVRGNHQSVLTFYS
Experimental: FIG. 1: In vitro testing of the NKCC1 inhibitors in the chloride kinetic assay a) Example traces obtained in the chloride kinetic assay on HEK cells transfected with the YFP (mock) or with YFP and NKCC1. The arrow indicates the addition of NaCl (final concentration 74 mM) used to initiate the flux assay. b) Quantification of the effect of bumetanide (10 μM and 100 μM) or furosemide (10 μM and 100 μM) in the chloride kinetic assay on mock or NKCC1-transfected HEK293 cells. Data represents mean±sem from 5 independent experiments. c) Quantification of the effect of bumetanide and furosemide and 2 selected compounds (3.8, 3.17) in the chloride kinetic assay on NKCC1-transfected HEK293 cells. Data represents mean±sem from 5 independent experiments, and they are represented as % of the controls. *P<0.05, **P<0.01, ***P<0.001 Kruskal-Wallis Anova (Dunn's Post hoc Test); ###P<0.001 two-tailed unpaired Student t-test.
To screen in vitro the compounds efficiency in blocking NKCC1, a functional NKCC1 transporter assay was performed by measuring variation of Cl^− ion concentration in the cell through a Cl^− sensitive membrane-tagged yellow fluorescent protein (mbYFPQS, Addgene). mbYFPQS fluorescence is inversely dependent on the concentration of Cl^− inside the cell thus allowing an indirect estimation of the Cl^− transporter activity. In particular, HEK293 cells were transfected with NKCC1 or mock construct (control) together with the Cl^− sensitive YFP. After 2 DIV, the cells were treated with bumetanide and furosemide (as positive controls) or with each of the tested compounds of the invention in a Cl^− free medium. After 30 min, the inhibitory activity of the compounds was tested by monitoring fluorescence upon application of NaCl (FIG. 1a). Transported by NKCC1, Cl binds the YFP, leading to a fluorescence decrease. […] With the Cl kinetic assay, the NKCC1 inhibitory activity of the selected compounds was tested (FIG. 1c).

NKCC1 [2] = assay: Calcium kinetic assay in primary cultures of immature hippocampal neurons; format: cell-based; details: 10 μM, immature neurons 3 DIV
Experimental: FIG. 2: In vitro testing of the NKCC1 inhibitors in a calcium kinetic assay. a) Example traces of fluorescence levels upon application of GABA (100 μM) and KCl (90 mM) used to trigger calcium influx in primary neuronal cultures treated after 3 days in culture (3 DIV) with vehicle, bumetanide, furosemide and compounds 3.8, 3.13 and 3.17 in the calcium kinetic assay. b) Quantification of the average fluorescence increase upon GABA application normalized to the increase upon KCl application in neurons treated with bumetanide, furosemide and 3 exemplary compounds (3.8, 3.13, 3.17) (10 μM, 100 μM). Data represents mean±sem from 5 independent experiments, and they are presented as % of the control. *P<0.05, **P<0.01, ***P<0.001 Kruskal-Wallis Anova (Dunn's Post hoc Test).
Next, the compounds of the invention were tested for their ability to revert the depolarizing GABAergic signaling in immature neurons. This effect was indirectly measured as calcium influx into the cells with an in vitro calcium kinetic assay in primary cultures of hippocampal neurons. The calcium kinetic assay exploits the physiological, endogenous, high expression of NKCC1 in immature neurons, which causes depolarizing actions of GABA and can activate voltage-gated Ca^2+ channels. Thus, in immature neurons, a compound that blocks NKCC1 is predicted to inhibit Ca^2+ responses upon GABA application. Immature neurons were cultured for 3 days in vitro (3 DIV) and loaded for 15 min with a calcium-sensitive dye (Fluo4). Then, the neurons were treated with bumetanide and furosemide (as positive controls) or with each of the selected compounds for 15 min. As a functional readout, the fluorescence level was monitored in these cultures before and after application of GABA (100 μM, for 20 sec). To test for neuronal viability at the end of the experiment, KCl was applied (90 mM, for 40 sec), which strongly depolarizes neurons, causing high activation of voltage-gated Ca^2+ channels in live cells. To quantify how bumetanide, furosemide, and selected compounds influenced NKCC1 inhibition, the fluorescence values were normalized upon GABA application to the fluorescence levels upon KCl application in treated neurons.

inhibition at 10 µM (NKCC1 [1]): 18%
SMILES: O=C(O)c1ccc(NCCCCCCCC(F)(F)F)c(S(=O)(=O)NC2CCCC2)c1 [Compound 3.21, 3-(cyclopentylsulfamoyl)-4-(8,8,8-trifluorooctylamino) benzoic acid]
NKCC1 Inhibition % 10 μM Neurons Calcium kinetic assay (NKCC1 [2]; Table 1): 51% | NKCC1 Inhibition % 10 μM Neurons Calcium kinetic assay (NKCC1 [2]; Table 2): 51%
